According to PubChem BioAssay (NCI):
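The compound was tested at five concentrations on cells cultured in 96-well plates, with a 48-hour exposure period. Definition used: TGI = concentration required for complete inhibition of growth.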

System: XF 498 CNS
Assay: DTP human tumour cell line panel, 48 h

SMILES: CCCCCCCCCC/C=C/C=O
- TGI: > 100 µM
